Reference: US9211310B2, “Use of a Chinese medicine composition in preparing medicaments for treating secondary prevention of myocardial infarction” (TASLY PHARMACEUTICAL GROUP CO., LTD, priority 2010, dated 2015)

Test system: patients after acute myocardial infarction
Test: TCM symptom score, total and single (chest pain, chest tightness, short breath, fatigue, palpitation, spontaneous perspiration, pale complexion), same clinical trial
Format: in vivo, human
Set-up: total score of TCM symptom, Mean / total score of TCM symptom, Min / total score of TCM symptom, Max / total score of TCM symptom, Md / change of total score of TCM symptom, Mean / change of total score of TCM symptom, Max / change of total score of TCM symptom, Md: scale not given here
Source text: 3508 patients who were in accordance with the diagnostic standards of AMI for 28 days to 2 years and differentiated as Qi deficiency and blood stagnation syndrome by TCM were studied. 0.5 g Chinese medicine composition prepared by the method of EXAMPLE 1 (Coded as QSYQ) was administrated half an hour after meal, 3 times per day.
They included the overall survival time, angina pectoris score, TCM symptom score and life quality score, where angina pectoris score, TCM symptom score and life quality score were evaluated at randomization, in 1st, 3rd, 6th, 9th, 12th month after treatment and 18th month after follow-up.
The analysis method referred to the angina pectoris score.

[1] = PP, 12 months after treatment-treatment
[2] = PP, 1 month after treatment-baseline

CC(=O)Oc1ccccc1C(=O)O [Control group, aspirine]
chest tightness score 2, percent of patients (Follow-up, FAS): (0.07%)
chest tightness score 3, number of patients (Follow-up, FAS): 479
chest tightness score 3, percent of patients (Follow-up, FAS): (33.57%)
chest tightness score 6, number of patients (Follow-up, FAS): 192
chest tightness score 6, percent of patients (Follow-up, FAS): (13.45%)
chest tightness score 9, number of patients (Follow-up, FAS): 1
chest tightness score 9, percent of patients (Follow-up, FAS): (0.07%)
chest pain score 0, number of patients (Follow-up, PP): 733
chest pain score 0, percent of patients (Follow-up, PP): (52.62%)
chest pain score 2, number of patients (Follow-up, PP): 1
chest pain score 2, percent of patients (Follow-up, PP): (0.07%)
chest pain score 3, number of patients (Follow-up, PP): 472
chest pain score 3, percent of patients (Follow-up, PP): (33.88%)
chest pain score 6, number of patients (Follow-up, PP): 186
chest pain score 6, percent of patients (Follow-up, PP): (13.35%)
chest pain score 9, number of patients (Follow-up, PP): 1
chest pain score 9, percent of patients (Follow-up, PP): (0.07%)
chest tightness score 0, number of patients (Follow-up, PP): 733
chest tightness score 0, percent of patients (Follow-up, PP): (52.62%)
chest tightness score 2, number of patients (Follow-up, PP): 1
chest tightness score 2, percent of patients (Follow-up, PP): (0.07%)
chest tightness score 3, number of patients (Follow-up, PP): 472
chest tightness score 3, percent of patients (Follow-up, PP): (33.88%)
chest tightness score 6, number of patients (Follow-up, PP): 186
chest tightness score 6, percent of patients (Follow-up, PP): (13.35%)
chest tightness score 9, number of patients (Follow-up, PP): 1
chest tightness score 9, percent of patients (Follow-up, PP): (0.07%)
change of short breath 0, % of patients [1]: (53.11%)
change of short breath 2, % of patients [1]: (36.17%)
change of short breath 2, number of patients [1]: 506
change of short breath 4, % of patients [1]: (4.50%)
change of short breath 4, number of patients [1]: 63
change of short breath 6, % of patients [1]: (0.79%)
change of short breath 6, number of patients [1]: 11
change of short breath −2, % of patients [1]: (5.36%)
change of short breath −2, number of patients [1]: 75
change of short breath −4, % of patients [1]: (0.07%)
change of short breath −4, number of patients [1]: 1
distribution of total score of TCM symptom: Medium, number of patients (PP, 1 month after treatment): 600
distribution of total score of TCM symptom: Medium, percentage of patients (PP, 1 month after treatment): (41.04%)
distribution of total score of TCM symptom: Mild, number of patients (PP, 1 month after treatment): 847
distribution of total score of TCM symptom: Mild, percentage of patients (PP, 1 month after treatment): (57.93%)
distribution of total score of TCM symptom: Severe, number of patients (PP, 1 month after treatment): 15
distribution of total score of TCM symptom: Severe, percentage of patients (PP, 1 month after treatment): (1.03%)
fatigue score 0, % of patients (PP, 1 month after treatment): (23.62%)
fatigue score 0, number of patients (PP, 1 month after treatment): 346
fatigue score 2, % of patients (PP, 1 month after treatment): (60.75%)
fatigue score 2, number of patients (PP, 1 month after treatment): 890
fatigue score 4, % of patients (PP, 1 month after treatment): (14.40%)
fatigue score 4, number of patients (PP, 1 month after treatment): 211
fatigue score 6, % of patients (PP, 1 month after treatment): (1.23%)
fatigue score 6, number of patients (PP, 1 month after treatment): 18
pale complexion score 0, number of patients (PP, 1 month after treatment): 613
pale complexion score 0, percent of patients (PP, 1 month after treatment): (41.81%)
pale complexion score 1, number of patients (PP, 1 month after treatment): 615
pale complexion score 1, percent of patients (PP, 1 month after treatment): (41.95%)
pale complexion score 2, number of patients (PP, 1 month after treatment): 211
pale complexion score 2, percent of patients (PP, 1 month after treatment): (14.39%)
pale complexion score 3, number of patients (PP, 1 month after treatment): 27
pale complexion score 3, percent of patients (PP, 1 month after treatment): (1.84%)
palpitation score 0, number of patients (PP, 1 month after treatment): 353
palpitation score 0, percent of patients (PP, 1 month after treatment): (24.11%)
palpitation score 1, number of patients (PP, 1 month after treatment): 1
palpitation score 1, percent of patients (PP, 1 month after treatment): (0.07%)
palpitation score 2, number of patients (PP, 1 month after treatment): 713
palpitation score 2, percent of patients (PP, 1 month after treatment): (48.70%)
palpitation score 4, number of patients (PP, 1 month after treatment): 351
palpitation score 4, percent of patients (PP, 1 month after treatment): (23.98%)
palpitation score 6, number of patients (PP, 1 month after treatment): 46
palpitation score 6, percent of patients (PP, 1 month after treatment): (3.14%)
short breath score 0, % of patients (PP, 1 month after treatment): (20.68%)
short breath score 0, number of patients (PP, 1 month after treatment): 303
short breath score 3, % of patients (PP, 1 month after treatment): (53.72%)
short breath score 3, number of patients (PP, 1 month after treatment): 787
short breath score 6, % of patients (PP, 1 month after treatment): (24.91%)
short breath score 6, number of patients (PP, 1 month after treatment): 365
short breath score 9, % of patients (PP, 1 month after treatment): (0.68%)
short breath score 9, number of patients (PP, 1 month after treatment): 10
spontaneous perspiration score 0, number of patients (PP, 1 month after treatment): 518
spontaneous perspiration score 0, percent of patients (PP, 1 month after treatment): (35.36%)
spontaneous perspiration score 1, number of patients (PP, 1 month after treatment): 738
spontaneous perspiration score 1, percent of patients (PP, 1 month after treatment): (50.38%)
spontaneous perspiration score 2, number of patients (PP, 1 month after treatment): 195
spontaneous perspiration score 2, percent of patients (PP, 1 month after treatment): (13.31%)
spontaneous perspiration score 3, number of patients (PP, 1 month after treatment): 14
spontaneous perspiration score 3, percent of patients (PP, 1 month after treatment): (0.96%)
total score of TCM symptom, Max (PP, 1 month after treatment): 34.00
total score of TCM symptom, Md (PP, 1 month after treatment): 11.00
total score of TCM symptom, Mean (PP, 1 month after treatment): 11.93
total score of TCM symptom, Min (PP, 1 month after treatment): 0.00
change of fatigue 0, % of patients [2]: (72.24%)
change of fatigue 0, number of patients [2]: 1054
change of fatigue 1, % of patients [2]: (0.07%)
change of fatigue 1, number of patients [2]: 1
change of fatigue 2, % of patients [2]: (17.82%)
change of fatigue 2, number of patients [2]: 260
change of fatigue 4, % of patients [2]: (2.40%)
change of fatigue 4, number of patients [2]: 35
change of fatigue 6, % of patients [2]: (0.82%)
change of fatigue 6, number of patients [2]: 12
change of fatigue −2, % of patients [2]: (5.96%)
change of fatigue −2, number of patients [2]: 87
change of fatigue −4, % of patients [2]: (0.62%)
change of fatigue −4, number of patients [2]: 9
change of fatigue −6, % of patients [2]: (0.07%)
change of fatigue −6, number of patients [2]: 1
change of pale complexion 0, number of patients [2]: 1275
change of pale complexion 0, percent of patients [2]: (87.45%)
change of pale complexion 1, number of patients [2]: 131
change of pale complexion 1, percent of patients [2]: (8.98%)
change of pale complexion −1, number of patients [2]: 52
change of pale complexion −1, percent of patients [2]: (3.57%)
change of palpitation 0, number of patients [2]: 1051
change of palpitation 0, percent of patients [2]: (71.99%)
change of palpitation 1, number of patients [2]: 295
change of palpitation 1, percent of patients [2]: (20.21%)
change of palpitation 2, number of patients [2]: 22
change of palpitation 2, percent of patients [2]: (1.51%)
change of palpitation 3, number of patients [2]: 4
change of palpitation 3, percent of patients [2]: (0.27%)
change of palpitation −1, number of patients [2]: 87
change of palpitation −1, percent of patients [2]: (5.96%)
change of palpitation −2, number of patients [2]: 1
change of palpitation −2, percent of patients [2]: (0.07%)
